The text below walks through data of patent EP1366765A1, “Use of matrix metalloproteinase inhibitors for treating neurological disorders and promoting wound healing” (priority 1996, dated 1998).

The target in one experiment is MMP-8 (Homo sapiens, UniProt P22894). As to conditions: cited from earlier work.
The target of another experiment is T1, MMP-1 (Homo sapiens, UniProt P03956).
T1 sequence (P03956 100-469): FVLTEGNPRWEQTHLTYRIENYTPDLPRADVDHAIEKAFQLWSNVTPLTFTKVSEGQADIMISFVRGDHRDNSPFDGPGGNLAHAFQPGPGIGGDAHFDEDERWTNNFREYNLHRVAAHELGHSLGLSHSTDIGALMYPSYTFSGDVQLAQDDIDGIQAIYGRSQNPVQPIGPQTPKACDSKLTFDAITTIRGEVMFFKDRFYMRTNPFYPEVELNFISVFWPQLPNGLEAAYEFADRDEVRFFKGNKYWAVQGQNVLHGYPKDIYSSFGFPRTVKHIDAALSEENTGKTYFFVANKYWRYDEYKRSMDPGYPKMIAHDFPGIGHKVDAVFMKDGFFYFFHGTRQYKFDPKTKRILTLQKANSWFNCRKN
Conditions: cited from earlier work; for IC50: IA = inactive.

The next experiment has as its target MMP-3 (Homo sapiens, UniProt P08254). As to conditions: cited from earlier work.
Experiment [1] relates to MMP-2.
In a further experiment the target is MMP-13 (Homo sapiens, UniProt P45452). Conditions: cited from earlier work.
Experiment [2] relates to MMP-2. Conditions: cited from earlier work.
The next experiment concerns the target MMP-9 (Homo sapiens, UniProt P14780). As to conditions: cited from earlier work.
In a further experiment the test system is stromelysin. Conditions: dosed orally at 30 mg/kg in rabbits injected with stromelysin; cited from earlier work.
The conditions of experiment [3]: cited from earlier work; for activity in the guinea pig model of osteoarthritis (in words): in vivo; for inhibiting femoral lesions: guinea pig model of osteoarthritis.
For experiment [4] the following is noted: in vivo; cited from earlier work.
The conditions of experiment [5]: in vivo; cited from earlier work. This is another data set of the same source.
In a further experiment the test system is MMPs. As to conditions: cited from earlier work.
The conditions of experiment [6]: from MBP-sensitized splenocytes; cited from earlier work.

Counter-ions that a name gives are not always drawn. Where a SMILES comes first, the peptide text is derived from it. The star is where a group is joined. Hydrocinnamoyl = O=C(CCc1ccccc1)*; Tfa = O=C(C(F)(F)F)*

MMP-9, sequence (P14780 94-707, species assumed): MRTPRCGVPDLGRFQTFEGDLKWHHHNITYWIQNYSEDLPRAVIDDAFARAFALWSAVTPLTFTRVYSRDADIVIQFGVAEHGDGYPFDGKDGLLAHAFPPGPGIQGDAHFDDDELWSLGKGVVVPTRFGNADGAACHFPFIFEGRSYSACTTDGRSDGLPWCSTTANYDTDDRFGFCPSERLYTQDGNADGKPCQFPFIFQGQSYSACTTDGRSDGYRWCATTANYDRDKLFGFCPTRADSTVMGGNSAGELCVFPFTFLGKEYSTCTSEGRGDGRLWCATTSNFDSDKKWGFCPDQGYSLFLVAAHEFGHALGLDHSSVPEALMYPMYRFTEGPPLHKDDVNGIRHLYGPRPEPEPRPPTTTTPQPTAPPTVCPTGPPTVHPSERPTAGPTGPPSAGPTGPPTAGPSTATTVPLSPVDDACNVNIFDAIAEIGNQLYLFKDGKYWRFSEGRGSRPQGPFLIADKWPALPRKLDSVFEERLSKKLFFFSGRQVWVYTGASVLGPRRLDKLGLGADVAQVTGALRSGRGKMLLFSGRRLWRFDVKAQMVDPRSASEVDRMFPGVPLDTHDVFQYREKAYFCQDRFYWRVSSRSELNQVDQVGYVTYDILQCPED
MMP-3, sequence (P08254 100-477, species assumed): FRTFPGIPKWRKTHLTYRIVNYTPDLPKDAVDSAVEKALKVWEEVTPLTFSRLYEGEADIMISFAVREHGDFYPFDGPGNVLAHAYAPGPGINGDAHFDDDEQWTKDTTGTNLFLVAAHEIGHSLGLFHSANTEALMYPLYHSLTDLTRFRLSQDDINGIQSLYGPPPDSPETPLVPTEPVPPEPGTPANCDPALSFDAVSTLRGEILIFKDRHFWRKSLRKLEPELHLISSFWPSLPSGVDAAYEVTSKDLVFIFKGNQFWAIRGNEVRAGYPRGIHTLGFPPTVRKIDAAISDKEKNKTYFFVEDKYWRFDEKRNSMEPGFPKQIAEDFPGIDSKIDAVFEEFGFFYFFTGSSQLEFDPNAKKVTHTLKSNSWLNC
MMP-8, sequence (P22894 101-467, species assumed): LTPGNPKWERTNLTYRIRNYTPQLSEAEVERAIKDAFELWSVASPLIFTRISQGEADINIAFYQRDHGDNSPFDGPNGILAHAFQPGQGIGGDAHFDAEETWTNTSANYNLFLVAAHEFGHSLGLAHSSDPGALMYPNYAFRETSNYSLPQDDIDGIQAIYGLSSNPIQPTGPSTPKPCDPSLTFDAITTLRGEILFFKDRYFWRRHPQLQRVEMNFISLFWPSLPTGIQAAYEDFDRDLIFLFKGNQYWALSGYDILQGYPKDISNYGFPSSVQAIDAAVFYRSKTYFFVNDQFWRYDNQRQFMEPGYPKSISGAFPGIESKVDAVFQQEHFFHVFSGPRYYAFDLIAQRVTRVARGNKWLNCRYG

What is called IC50 is the concentration at which inhibition is half-maximal. On to `CNC(=O)[C@H](Cc1ccccc1)NC(=O)[C@H](CCCCO)CC(=O)NO` [Compound 5], for which the half-inhibitory concentration (IC50) on MMP-8 was 7 nM; at MMP-1, 64 nM.

As for `CCCNC(=O)CCC[C@H](CC(=O)NO)C(=O)N[C@@H](Cc1ccccc1)C(=O)NC` [Compound 6], the IC50 was 2 nM at MMP-8 and 5100 nM on MMP-1.

For the compound `CNC(=O)[C@H](Cc1ccccc1)NC(=O)[C@H](CCCC(=O)NCCc1ccccc1)CC(=O)NO` [Compound 7], the IC50 was 32 nM at MMP-8 and 1300 nM on MMP-1.

On to `CNC(=O)[C@H](Cc1ccccc1)NC(=O)[C@H](CCCOCc1ccccc1)CC(=O)NO` [Compound 8], for which, at MMP-1, the IC50 is 2270 nM.

For the compound `CCCCCCCCCCCC[C@H](CC(=O)O)C(=O)N[C@@H](Cc1ccccc1)C(=O)NC` [Compound 11], the “MMP-1 % @ 100 µM” value at MMP-1 (@ 100 µM) is recorded as 30% @ 100 µM.

In the case of `O=C(C[C@@H](CCCc1ccccc1)C(=O)N[C@@H](CC1CCCCC1)C(=O)NCCc1ccccc1)NO` [Compound 17], the IC50 at MMP-3 was 8.3 nM; on MMP-1, 203 nM. Further, in the experiment with MMP-2 [1], the “selectivity for MMP-2 over MMP-1” value was 10,000 fold. Besides, the “selectivity for MMP-2 over MMP-3” value with MMP-2 [1] was determined as 100 fold.

Consider `O=C(C[C@@H](CCCc1ccc(Cl)cc1)C(=O)N[C@@H](CC1CCCCC1)C(=O)NCCNS(=O)(=O)N1CCOCC1)NO` [Compound 18], for which, at MMP-13, the “inhibition of MMP-13 (in words)” value is recorded as “potently inhibits”. The IC50 was less than 0.01 nM with MMP-2 [2], 0.016 nM at MMP-9 and 385 nM at MMP-1.

Consider `Cc1ccc(CCC[C@H](CC(=O)O)C(=O)N[C@@H](CC2CCCCC2)C(=O)NCCc2ccccc2)cc1` [Compound 19], for which the IC50 in the experiment with MMP-2 [2] was 1 nM; at MMP-3, 470 nM; at MMP-1 it was 22000 nM.

Take `CCCCCCCCC(NC(C)C(=O)O)C(=O)NC(CC(C)C)C(=O)Nc1ccccc1` (stereo not drawn) [Compound 24]: the half-maximal inhibitory concentration (IC50) with MMP-2 [2] is 340 nM; at MMP-3 it was 570 nM; at MMP-1, more than 10000 nM.

On to `CC(C)CC(NC(=O)C(CCc1ccccc1)NC(CCCCN1C(=O)c2ccccc2C1=O)C(=O)O)C(=O)Nc1ccccc1` (stereo not drawn) [Compound 27], for which the IC50 with MMP-2 [2] was 86 nM; at MMP-3, 8 nM; on MMP-1, 720 nM.

Turning to `CNC(=O)[C@H](Cc1ccccc1)NC(=O)[C@H](CC(C)C)N[C@@H](CCN1C(=O)c2cc3ccccc3cc2C1=O)C(=O)O` [Compound 28], the results for the IC50 on MMP-9, on MMP-3 and on MMP-1 were 5 nM, 91 nM and 20 nM, respectively.

As for `CNC(=O)[C@H](Cc1ccccc1)NC(=O)[C@H](CC(C)C)N[C@@H](CCN1C(=O)c2cc3ccccc3c(OC)c2C1=O)C(=O)O` [Compound 29], the half-inhibitory concentration (IC50) was 7 nM at MMP-9, 1400 nM at MMP-3 and 54 nM at MMP-1.

As for `CC(C)CC(NC(CCN1C(=O)c2cc3ccccc3cc2C1=O)C(=O)O)C(=O)NCCc1ccccc1` (stereo not drawn) [Compound 30], the IC50 was more than 10000 nM in the experiment with MMP-2 [2], 35 nM at MMP-9 and 160 nM on MMP-1.

On to `CC(C)C[C@H](N[C@@H](CCN1C(=O)c2cc3ccccc3cc2C1=O)C(=O)O)C(=O)NCc1ccc(C(=O)O)cc1` [Compound 31], for which the IC50 in the experiment with MMP-2 [2] was 178 nM; on MMP-9, 74 nM; at MMP-1, 56 nM.

`CCCc1ccc(CCC(CC(CCCCN2C(=O)c3ccccc3C2=O)C(=O)O)C(=O)NC(CC(C)C)C(=O)Nc2ccccc2)cc1` (stereo not drawn) [Compound 32]: the IC50 in the experiment on MMP-2 [2] was 5.7 nM; at MMP-3, 0.036 nM; at MMP-1, more than 10000 nM.

For `NC(=O)C(Cc1ccccc1)NC(=O)C(CS)NC(=O)C(F)(F)F` (stereo not drawn) [Compound 33] (Tfa-Cys-Phe-NH2; configuration not given here), the half-maximal inhibitory concentration (IC50) on MMP-1 is 40 nM.

With `CC(=O)NC(CS)C(=O)NC(Cc1ccccc1)C(N)=O` (stereo not drawn) [Compound 34] (Ac-Cys-Phe-NH2; configuration not given here), on MMP-1, the IC50 was more than 100000 nM and the “inhibition of MMP-1 (in words)” value is reported as “did not inhibit”.

As for `NC(=O)C(Cc1ccccc1)NC(=O)C(CS)NC(=O)CCc1ccccc1` (stereo not drawn) [Compound 35] (Hydrocinnamoyl-Cys-Phe-NH2; configuration not given here), the concentration for half-maximal inhibition (IC50) at MMP-8 is 38 nM; on MMP-1, 3500 nM.

On to `Cc1ccc(CCCC(CP(=O)(O)O)C(=O)NC(CC2CCCCC2)C(=O)NCCc2ccccc2)cc1` (stereo not drawn) [Compound 37], for which the half-inhibitory concentration (IC50) in the experiment on MMP-2 [2] was 2.5 nM; on MMP-3 it was 277 nM; on MMP-1 it was 17000 nM.

For `COc1ccc(S(=O)(=O)N(Cc2cccnc2)[C@@H](C(=O)NO)C(C)C)cc1` [Compound 40], in the experiment with stromelysin, the proteoglycan break down entry was “blocks proteoglycan break down”. The “activity in the guinea pig model of osteoarthritis (in words)” value (from here on “activity in the guinea pig model”) in experiment [3] is “effective”.

Take `O=C(CC(CCc1ccccc1)C(=O)O)c1ccc(-c2ccc(OCc3ccccc3)cc2)cc1` (stereo not drawn) [Compound 43]: the IC50 in the experiment on MMP-2 [2] was 14 nM; at MMP-9, 3200 nM; at MMP-3 it was 17 nM. Besides, the inhibiting femoral lesions in [3] was 37.8%. For the same compound, in experiment [3], the “activity in the guinea pig model” value is listed as “active”.

`O=C(CC(CCN1C(=O)c2ccccc2C1=O)C(=O)O)c1ccc(-c2ccc(OCc3ccccc3)cc2)cc1` (stereo not drawn) [Compound 44]: the results for the IC50 in the experiment with MMP-2 [2], on MMP-9 and at MMP-3 were 0.91 nM, 1.5 nM and 5.7 nM, respectively. For the same compound, the “antimetastatic effect, spontaneous metastasis model” value in experiment [4] is “antimetastatic”. In addition, in experiment [3], the inhibiting femoral lesions was 53%. In [3], the “activity in the guinea pig model” value is given as “active”. Moreover, the “antimetastatic effect, tail vein metastasis model” value in [5] was “antimetastatic”.

Consider `CO[C@H]1[C@H](O[C@@H]2c3c(cc4c(c3O)C(=O)c3c(O)cccc3C4=O)C(=O)[C@@](C)(O)[C@H]2OC)O[C@@H](C)[C@H](O)[C@H]1O` [Compound 46, aranciamycin], for which the “inhibition of MMPs (in words)” value in the experiment on MMPs was “weak inhibitors”.

`COC(=O)c1cccc2c1C(=O)c1c(C(=O)OC)cc(C(=O)O)cc1C2=O` [Compound 48]: on MMP-1, the “inhibition of MMP-1 (in words)” value was “MMP-1 inhibitors”.

Take `CC(=O)NC1C(O)CC(Cc2cc3ccc(=O)oc3cc2OC(=O)N(C)C)C(O)C1O` (stereo not drawn) [Compound 49]: the “inhibition of MMP-1 (in words)” value at MMP-1 is “weak inhibitors”.

For `CNC(=O)[C@@H](NC(=O)[C@@H](CC(=O)NO)CC(C)C)C(C)(C)C` [RO 31-9790], the “protection in adoptively transferred EAE” value in experiment [6] is on record as “protect”.
